In patent US20240239861A1, “GLUCAGON-RECEPTOR SELECTIVE POLYPEPTIDES AND METHODS OF USE THEREOF” (i2O Therapeutics, Inc., priority 2016, published 2024):
Where a SMILES comes first, the peptide text is derived from it. [ ]: non-standard residue; d: D form. Aib = CC(C)(N)C(=O)O

How the values were obtained:
[1] = target: human GCGR (Homo sapiens, UniProt P47871); experiment: Peptide-receptor mediated cAMP accumulation (LANCE Ultra cAMP) in CHO-K1 cells transfected with human GCGR; assay type: cell-based; settings: Table 3
[2] = target: human GLP-1R (Homo sapiens, UniProt P43220); experiment: Peptide-receptor mediated cAMP accumulation (LANCE Ultra cAMP) in CHO-K1 cells transfected with human GLP-1R; assay type: cell-based; settings: hGLP1 pEC50 (cAMP mean (n = 3): 11 point curve starting at 1 nM, Table 3)
human GLP-1R, sequence (P43220 24-463): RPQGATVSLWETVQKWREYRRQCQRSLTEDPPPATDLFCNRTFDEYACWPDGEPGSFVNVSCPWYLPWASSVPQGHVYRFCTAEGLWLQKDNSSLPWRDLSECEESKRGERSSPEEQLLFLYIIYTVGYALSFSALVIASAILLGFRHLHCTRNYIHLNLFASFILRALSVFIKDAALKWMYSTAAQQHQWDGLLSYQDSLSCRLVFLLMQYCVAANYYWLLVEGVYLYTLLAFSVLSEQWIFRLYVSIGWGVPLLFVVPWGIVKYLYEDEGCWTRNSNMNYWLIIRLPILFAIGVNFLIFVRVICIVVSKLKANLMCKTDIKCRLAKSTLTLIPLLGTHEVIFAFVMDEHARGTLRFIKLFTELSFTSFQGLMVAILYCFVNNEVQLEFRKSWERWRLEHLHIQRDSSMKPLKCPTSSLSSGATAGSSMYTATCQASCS

human GCGR, sequence (P47871 26-477): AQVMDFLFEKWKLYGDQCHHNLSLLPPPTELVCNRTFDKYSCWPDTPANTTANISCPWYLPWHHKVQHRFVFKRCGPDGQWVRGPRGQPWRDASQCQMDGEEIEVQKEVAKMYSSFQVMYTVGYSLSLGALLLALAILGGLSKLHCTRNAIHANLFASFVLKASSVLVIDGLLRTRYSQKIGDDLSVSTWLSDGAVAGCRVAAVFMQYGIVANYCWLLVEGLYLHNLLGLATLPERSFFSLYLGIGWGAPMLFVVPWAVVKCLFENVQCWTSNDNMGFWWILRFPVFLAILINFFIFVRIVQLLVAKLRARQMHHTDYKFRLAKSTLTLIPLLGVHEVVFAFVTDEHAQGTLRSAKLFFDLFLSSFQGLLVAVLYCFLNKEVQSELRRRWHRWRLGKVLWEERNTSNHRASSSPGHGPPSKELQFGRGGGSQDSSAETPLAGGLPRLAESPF

SMILES	EC50 [1] [pM]	EC50 [2] [pM]
CC(C)C[C@H](NC(=O)[C@H](Cc1ccc(O)cc1)NC(=O)[C@H](CCCCN)NC(=O)[C@H](CO)NC(=O)[C@H](Cc1ccc(O)cc1)NC(=O)[C@H](CC(=O)O)NC(=O)[C@H](CO)NC(=O)[C@@H](NC(=O)[C@H](Cc1ccccc1)NC(=O)[C@@H](NC(=O)CNC(=O)[C@H](Cc1c[nH]cn1)NC(=O)[C@H](CO)NC(=O)[C@@H](N)Cc1ccc(O)cc1)[C@@H](C)O)[C@@H](C)O)C(=O)N[C@@H](CC(=O)O)C(=O)NC(C)(C)C(=O)N[C@@H](CCCCN)C(=O)N[C@@H](CCCNC(=N)N)C(=O)N[C@@H](C)C(=O)N[C@@H](CCC(N)=O)C(=O)N[C@@H](CCC(=O)O)C(=O)N[C@@H](Cc1ccccc1)C(=O)N[C@H](C(=O)NC(C)(C)C(=O)N[C@@H](Cc1c[nH]c2ccccc12)C(=O)N[C@@H](CC(C)C)C(=O)N[C@@H](CCC(=O)O)C(=O)N[C@@H](CC(=O)O)C(=O)N[C@@H](CCC(=O)O)C(=O)N[C@@H](CCCCN)C(=O)N[C@@H](CCCNC(=N)N)C(=O)N[C@@H](CC(N)=O)C(=O)N[C@@H](CCCCN)C(=O)N1CCC[C@H]1C(=O)N1CCC[C@H]1C(=O)N1CCC[C@H]1C(=O)N[C@@H](CO)C(=O)O)C(C)C [Compound A50] (H-YSHGTFTSDYSKYLD[Aib]KRAQEFV[Aib]WLEDEKRNKPPPS-OH; N-terminus assumed)	3.16	> 1000
CC(C)C[C@H](NC(=O)[C@H](Cc1c[nH]c2ccccc12)NC(=O)[C@H](CC(C)C)NC(=O)[C@@H](NC(=O)[C@H](Cc1ccccc1)NC(=O)[C@H](CCC(=O)O)NC(=O)[C@H](CCC(N)=O)NC(=O)[C@H](C)NC(=O)[C@H](CCCNC(=N)N)NC(=O)[C@H](CCCCN)NC(=O)C(C)(C)NC(=O)[C@H](CC(=O)O)NC(=O)[C@H](CC(C)C)NC(=O)[C@H](Cc1ccc(O)cc1)NC(=O)[C@H](CCCCN)NC(=O)[C@H](CO)NC(=O)[C@H](Cc1ccc(O)cc1)NC(=O)[C@H](CC(=O)O)NC(=O)[C@H](CO)NC(=O)[C@@H](NC(=O)[C@H](Cc1ccccc1)NC(=O)[C@@H](NC(=O)CNC(=O)[C@H](Cc1c[nH]cn1)NC(=O)[C@H](CO)NC(=O)[C@@H](N)Cc1ccc(O)cc1)[C@@H](C)O)[C@@H](C)O)C(C)C)C(=O)N[C@@H](CCC(=O)O)C(=O)N[C@@H](CC(=O)O)C(=O)N[C@@H](CCC(=O)O)C(=O)N1CCC[C@H]1C(=O)N[C@@H](CO)C(=O)N[C@@H](CO)C(=O)NCC(=O)N[C@@H](C)C(=O)N1CCC[C@H]1C(=O)N1CCC[C@H]1C(=O)N1CCC[C@H]1C(=O)N[C@@H](CO)C(=O)O [Compound A53] (H-YSHGTFTSDYSKYLD[Aib]KRAQEFVLWLEDEPSSGAPPPS-OH; N-terminus assumed)	2.51	> 1000
CC(C)C[C@H](NC(=O)[C@H](Cc1ccc(O)cc1)NC(=O)[C@H](CCCCN)NC(=O)[C@H](CO)NC(=O)[C@H](Cc1ccc(O)cc1)NC(=O)[C@H](CC(=O)O)NC(=O)[C@H](CO)NC(=O)[C@@H](NC(=O)[C@H](Cc1ccccc1)NC(=O)[C@@H](NC(=O)CNC(=O)[C@H](Cc1c[nH]cn1)NC(=O)[C@H](CO)NC(=O)[C@@H](N)Cc1ccc(O)cc1)[C@@H](C)O)[C@@H](C)O)C(=O)N[C@@H](CC(=O)O)C(=O)NC(C)(C)C(=O)N[C@@H](CCCCN)C(=O)N[C@@H](CCCNC(=N)N)C(=O)N[C@@H](C)C(=O)N[C@@H](CCC(N)=O)C(=O)N[C@@H](CCC(=O)O)C(=O)N[C@@H](Cc1ccccc1)C(=O)N[C@H](C(=O)NC(C)(C)C(=O)N[C@@H](Cc1c[nH]c2ccccc12)C(=O)N[C@@H](CC(C)C)C(=O)N[C@@H](CCC(=O)O)C(=O)N[C@@H](CC(=O)O)C(=O)N[C@@H](CCC(=O)O)C(=O)N1CCC[C@H]1C(=O)N[C@@H](CCCCN)C(=O)N[C@@H](CO)C(=O)N[C@@H](CCCCN)C(=O)N[C@@H](CCC(N)=O)C(=O)N1CCC[C@H]1C(=O)N1CCC[C@H]1C(=O)N1CCC[C@H]1C(=O)N[C@@H](CO)C(=O)O)C(C)C [Compound A57] (H-YSHGTFTSDYSKYLD[Aib]KRAQEFV[Aib]WLEDEPKSKQPPPS-OH; N-terminus assumed)	1	> 1000
